# Measurements taken from paper PMC8490515, “Neuromedin B receptor stimulation of Cav3.2 T-type Ca^2+ channels in primary sensory neurons mediates peripheral pain hypersensitivity” (Theranostics, 2021).
# How the values were obtained:
# [1] = system: voltage-gated Na^+ channels (Nav); assay: Whole-cell voltage-gated Na+ channel currents in TG neurons; format: cell-based, mouse; conditions: 100 nM
# Experimental: All the procedures performed in this study were carried out in accordance with NIH guidelines and were approved by the Institutional Animal Care and Use Committee of Soochow University. TG neurons were dissociated as previously described, [23]. Briefly, TGs were harvested from 8- to 10-week-old ICR mice of either sex, cut into small pieces and treated with 2 mg/mL collagenase D (Roche) for 20 min followed by 1.5 mg/mL trypsin (Sigma) at 37 °C for 15 min. Cells were dissociated via gentle trituration with fire-polished sterilized Pasteur pipettes and centrifuged through a 15% BSA gradient to remove debris and nonneuronal cells. TG neurons were resuspended in neurobasal A (Thermo Fisher) supplemented with B27 (Thermo Fisher) and transferred onto Matrigel-coated coverslips. Patch clamp recordings were conducted 2 to 6 h after plating. In shRNA-treated knockdown experiments, TG cells were replated onto coverslips 48 h after infection.
# Standard whole-cell recordings were made at room temperature (22-23 °C) as described previously, [25]. Recording electrodes were pulled from borosilicate glass microcapillary tubes (Sutter Instruments) and had resistances from 3 to 5 MΩ when filled with internal solution. Recordings were obtained using a MultiClamp 700B amplifier (Axon Instruments). […]
# Cav3.3 (α1I) = assay: Cav3.3 channel currents in HEK293 cells coexpressing NmbR; format: cell-based, human; conditions: 100 nM Nmb; -110 mV to -30 mV; n = 7
# [2] = system: phosphorylated AMPK (p-AMPK); assay: Western blot of phosphorylated AMPK in TG cells; format: cell-based, mouse; conditions: Nmb exposure (100 nM) in TG cells
substance,measurement,setting,value
Neuromedin B [Nmb],effect on whole-cell Nav currents,[1],did not affect
same,increase of Cav3.3 channel currents,Cav3.3 (α1I),2.9 ± 1.6%
same,level of phosphorylated AMPK,[2],markedly increased
